Consider 1 compound from patent publication US20060135480A1, “Derivatives of succinic and glutaric acids and analogs thereof useful as inhibitors of phex” (Enobia Pharma, priority 2002, published 2006).

The target of test [1] is T1, sPHEX (Homo sapiens, UniProt P78562).
T1 construct: The soluble form of the metallopeptidase PHEX (sPHEX) was purified to homogeneity; made in house
T1 sequence (P78562 53-749 limits assumed): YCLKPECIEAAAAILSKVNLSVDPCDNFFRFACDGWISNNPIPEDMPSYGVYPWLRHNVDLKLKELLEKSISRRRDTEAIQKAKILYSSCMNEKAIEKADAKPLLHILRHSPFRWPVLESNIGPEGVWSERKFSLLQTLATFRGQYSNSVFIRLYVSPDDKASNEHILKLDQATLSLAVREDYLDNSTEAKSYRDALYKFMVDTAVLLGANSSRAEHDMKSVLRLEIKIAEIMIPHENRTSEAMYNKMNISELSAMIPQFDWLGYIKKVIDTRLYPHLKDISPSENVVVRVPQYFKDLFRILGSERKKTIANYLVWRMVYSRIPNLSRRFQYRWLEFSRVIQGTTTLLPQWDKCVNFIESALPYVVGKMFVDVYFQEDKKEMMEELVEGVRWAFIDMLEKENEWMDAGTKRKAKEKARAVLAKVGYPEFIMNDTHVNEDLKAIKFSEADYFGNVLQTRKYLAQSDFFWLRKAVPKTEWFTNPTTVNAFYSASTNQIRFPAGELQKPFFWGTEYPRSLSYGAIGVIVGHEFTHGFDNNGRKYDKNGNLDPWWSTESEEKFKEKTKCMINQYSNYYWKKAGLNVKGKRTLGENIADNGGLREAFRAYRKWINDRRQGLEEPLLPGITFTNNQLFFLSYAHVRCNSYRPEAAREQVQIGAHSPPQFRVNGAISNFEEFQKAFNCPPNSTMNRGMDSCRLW
The test is described as follows: sPHEX inhibitor IC50 determination using a fluorogenic substrate (Abz-GFSDYK-Dnp, S3). The note with it: fluorogenic substrate 20 μM, 100 ng sPHEX, pH 6.5. Format: biochemical. Here is the method:
The soluble form of the metallopeptidase PHEX (sPHEX) was purified to homogeneity according to the methods of Boileau and Crine (WO 00/50580). sPHEX quantity was measured with the Bradford assay (BioRad) using BSA as a standard.
sPHEX activity was determined using a fluorogenic substrate in which an increase of fluorescence was proportional to substrate conversion to products.
S3 was synthesized at Dr. Gilles Lajoie's laboratories (University of Western Ontario, Canada) by standard solid phase peptide synthesis. The fluorescent reaction product was excited at 320 nm to fluoresce at 420 nm. Fluorescence was recorded at 420 nm every five minutes over a one-hour period on a fluorescence plate reader (Perkin-Elmer, HTS-7000) to calculate the initial rate of the reaction. Typically, the reaction was carried out in 200 μl of buffer M (50 mM Mes(NaOH) pH 6.5, 150 mM NaCl) containing 100 ng of purified sPHEX and 20 μM of fluorigenic substrate to initiate the reaction. Enzymatic activity was determined by subtracting either the initial rate of substrate in buffer (solvolysis), or the typical reaction rate in which 5 mM EDTA was added prior to initiating the reaction.
sPHEX inhibitor IC50 determinations were done using the tested inhibitor at various concentrations coming from a serial dilution (usually ranging from 10^−3 M to 10^−12 M) in the reaction described above. IC50 values were calculated using the iterative four parameters non-linear regression formula from the GraphPad™ software (Prism).

Test [2] deals with T1, sPHEX. Nature of the test: Protection of PHEX substrate PTHrP107-139 from sPHEX degradation (RP-HPLC). The test is classed as biochemical. The note with it: 1×10^−5 M inhibitor, 15 min preincubation, 30 min at 37° C. As for the experimental part: In general, in order to show inhibition of sPHEX, the enzyme is incubated in the absence or the presence of the inhibiting compound, and a substrate is added in conditions that are suitable for sPHEX enzymatic activity. Hydrolysis of the substrate in the absence or the presence of the inhibiting compound is monitored.
For example, 1.0 μg of purified sPHEX was first incubated at 37° C. for 15 min with or without 1×10^−5M of compound MH-2-64C (FIG. 1) in 90 μl 50 mM MES (2-(N-morpholino) ethanesulfonic acid) pH 6.5, 150 mM NaCl. Then, 2.5 μg of peptide PTHrP107-139 in 10 μl of the same buffer were added and the incubation continued for 30 min. The reaction mixture also contained 1.3 μg of the amino acid Phe which was used as an internal standard. After the incubation period, the reaction was stopped by the addition of EDTA to a final concentration of 5 mM. Detection of cleavage products was performed by reverse phase high performance liquid chromatography (RP-HPLC) on a C18 μBondapak™ analytical column (Waters, Mississauga, ON, Canada) with a UV detector set at 220 nm. […] Results were quantified by comparing the area under the undigested peak of PTHrP107-139, after normalization for the amount of Phe present in the sample.

The compound `O=C(O)CC(CC(=O)NO)C(=O)NCCc1ccc(-c2ccccc2)cc1` (centres unmarked) [Example 126, 3-(2-Biphenyl-4-yl-ethylcarbamoyl)4-hydroxycarbamoyl-butyric acid] showed an IC50 against sPHEX [1] of 17 nM. Also, the “degradation of PTHrP107-139 by sPHEX” value on sPHEX [2] is reported as “fully prevented”.

A word on the IC50: it is the midpoint of a concentration-inhibition curve. Lower therefore signals higher potency.
